In the RepoRT retention time repository:

Test: Agilent ZORBAX 300 SB-C18, 150 × 1 mm, 3.5 µm; A: water + 0.01% heptafluorobutyric acid; B: acetonitrile + 0.01% heptafluorobutyric acid; gradient (min/%B) 0/0 100/90
Details: stereoisomer not certain

Row | SMILES | LC retention time [min]
1 | Cc1cc[n+](CCC(=O)O)c2ccccc12 | 7.41
2 | O=c1c2ccccc2nnn1Cc1ccncc1 | 8.31
3 | Cc1cc(C=O)c(C)n1C1CCCCC1 | 14.4
4 | Cc1cc(C(=O)N2CCCCC2)c2c(=O)n(CC(=O)N3CCc4ccccc43)c(=O)n(C)c2n1 | 13.5
5 | C#CCN(C)C | 4.22
6 | Cc1c(-c2ccccc2)cc(-c2ccccc2)nc1-c1ccccc1 | 19.2
7 | Cc1cccc(Nc2cc(C)nc3ccccc23)c1 | 10.4
8 | Cn1cccc1CC(=O)NN=CC=Cc1ccccc1 | 12.7
9 | COc1ccc(-c2cc(=O)c3c(ccc4ccccc43)o2)cc1 | 17
10 | CC(COc1ccccc1)NC(C)C(O)c1ccc(O)cc1 (configuration not stated) | 9.89
11 | CN1CCC2(CC1)NC(=O)N(c1ccccc1)N2 | 7.95
12 | O=Cc1c(-c2ccccc2)[nH]c2ccccc12 | 12.7
13 | c1ccc(CCNc2ccncn2)nc1 | 7.03
14 | O=C(CCc1ccccc1)NNC(=S)NCc1ccccc1 | 12.4
15 | O=C1Nc2ccccc2C1CCCO (configuration not stated) | 8.22
16 | Cc1ccc(-c2nn[nH]n2)cc1 | 9.59
17 | Cc1[nH]c2ccccc2c1C=NN=Cc1c(C)[nH]c2ccccc12 | 12

Row | SMILES | LC retention time [min]
18 | CN(C)c1ccccn1 | 6.81
19 | CN(C)CCN(C)CCN(C)C | 6.9
20 | COC(=O)C1CCCNC1=O (configuration not stated) | 6.61
21 | COc1c(C)cccc1C(=O)NN | 8.52
22 | COC(=O)CN1CCCC1=O | 6.91
23 | c1cnc2nc[nH]c2c1 | 6.03
24 | Cn1c(=O)c2n[nH]c(=S)nc2n(C)c1=O | 7.17
25 | CCCCNCC | 7.1
26 | O=c1cc[nH]c(=O)[nH]1 | 1.47
27 | CC[N+](C)(CC)CC | 6.48
28 | CCc1ccc(C2CC(=O)N(N(C)C)C3=C2C(=O)CCC3)cc1 (configuration not stated) | 15.1
29 | O=C(NCc1ccc(-n2cccc2)cc1)C(c1ccccc1)c1ccccc1 | 16.6
30 | Cc1[nH][nH]c(=O)c1CCC(=O)NN=Cc1c(C)[nH]c2ccccc12 | 8.93
31 | CCCCCCCC(N)=O | 11
32 | Nc1ccc2c(c1)CCC2 | 8.35
33 | COc1cc(C(=O)Nc2ccc(OCC(N)=O)cc2)cc(OC)c1OC | 9.54
34 | O=C(NCCc1ccc2oc3ccccc3c2c1)C1CCCCC1 | 16.3

Further lines, results first:

Row | LC retention time [min] | SMILES
35 | 9.1 | O=C(CC1NC(=O)N(C2CCCCC2)C1=O)Nc1cccnc1 (configuration not stated)
36 | 7.75 | CCC(C)C(NC(C)=O)C(=O)O (configuration not stated)
37 | 8.35 | Cc1nn(CC(=O)NC2CC(C)(C)NC(C)(C)C2)c(=O)c2ccccc12
38 | 6.29 | NCc1ccc2[nH]c(=O)[nH]c2c1
39 | 12.1 | O=C(C=Cc1ccco1)C1CC1
40 | 21.4 | COc1ccc2c(c1)CCC1C2CCC2(C)C(=O)C(=Cc3ccccc3)CC12 (configuration not stated)
41 | 5.59 | NC(CC(=O)O)c1ccccc1 (configuration not stated)
42 | 3.51 | C#CCNC
43 | 14 | CCOC(=O)c1ccc(Nc2c(N)c(=O)oc3ccccc23)cc1
44 | 11.6 | S=C1N=C2CCCCC2C2(CCCCC2)N1 (configuration not stated)
45 | 10.7 | COC(=O)Cn1c(=O)c2ccccc2n(CC(=O)OC)c1=O
46 | 11.5 | CC(C)(C(=O)O)c1ccc(C(O)CCCN2CCC(C(O)(c3ccccc3)c3ccccc3)CC2)cc1 (configuration not stated)
47 | 13.1 | CC(CC(=O)Nc1ccc(Nc2ccccc2)cc1)=NNC(=O)Cc1ccccc1
48 | 8.14 | CCNC(=S)Nc1ccccc1N
49 | 7.16 | CC(C)NCCNC(C)C
50 | 8.08 | CNCCOc1ccccc1
51 | 10.6 | S=c1nccc(-c2ccc3ccccc3c2)[nH]1
52 | 6.81 | C1CN(CCN2CCOCC2)CCO1
